Values quoted from earlier work as cited in US8840883B2, “Metallo-protein and tocotrienol (MP-T3) compositions with non-protein-type metal chelator and uses thereof” (Naidu LP, priority 2007, dated 2014).

Conditions: as low as 2% oxygen

Compound	degradation [%]
CC(C)=CCC/C(C)=C/CC/C(C)=C/CC[C@]1(C)CCc2cc(O)c(C)c(C)c2O1 [gamma-T3]	29
Cc1c(O)cc2c(c1C)O[C@](C)(CCC[C@H](C)CCC[C@H](C)CCCC(C)C)CC2 [gamma-tocopherol]	20
